Earlier results in PMC5560747, “Computational-experimental approach to drug-target interaction mapping: A case study on kinase inhibitors” (PLoS Computational Biology, 2017).

Legend:
Parameters in all cases: method as in Gao et al. [42]
MAPKAPK2 = conditions: ref Gao et al. [42], cited from earlier work
CSNK1D = conditions: ref Gao et al. [42], cited from earlier work
AKT3 = conditions: ref Gao et al. [42], cited from earlier work
IGF1R = IGF1R (Homo sapiens, UniProt P08069); conditions: ref Gao et al. [42]; cited from earlier work
Sequence of IGF1R (P08069 31-1367): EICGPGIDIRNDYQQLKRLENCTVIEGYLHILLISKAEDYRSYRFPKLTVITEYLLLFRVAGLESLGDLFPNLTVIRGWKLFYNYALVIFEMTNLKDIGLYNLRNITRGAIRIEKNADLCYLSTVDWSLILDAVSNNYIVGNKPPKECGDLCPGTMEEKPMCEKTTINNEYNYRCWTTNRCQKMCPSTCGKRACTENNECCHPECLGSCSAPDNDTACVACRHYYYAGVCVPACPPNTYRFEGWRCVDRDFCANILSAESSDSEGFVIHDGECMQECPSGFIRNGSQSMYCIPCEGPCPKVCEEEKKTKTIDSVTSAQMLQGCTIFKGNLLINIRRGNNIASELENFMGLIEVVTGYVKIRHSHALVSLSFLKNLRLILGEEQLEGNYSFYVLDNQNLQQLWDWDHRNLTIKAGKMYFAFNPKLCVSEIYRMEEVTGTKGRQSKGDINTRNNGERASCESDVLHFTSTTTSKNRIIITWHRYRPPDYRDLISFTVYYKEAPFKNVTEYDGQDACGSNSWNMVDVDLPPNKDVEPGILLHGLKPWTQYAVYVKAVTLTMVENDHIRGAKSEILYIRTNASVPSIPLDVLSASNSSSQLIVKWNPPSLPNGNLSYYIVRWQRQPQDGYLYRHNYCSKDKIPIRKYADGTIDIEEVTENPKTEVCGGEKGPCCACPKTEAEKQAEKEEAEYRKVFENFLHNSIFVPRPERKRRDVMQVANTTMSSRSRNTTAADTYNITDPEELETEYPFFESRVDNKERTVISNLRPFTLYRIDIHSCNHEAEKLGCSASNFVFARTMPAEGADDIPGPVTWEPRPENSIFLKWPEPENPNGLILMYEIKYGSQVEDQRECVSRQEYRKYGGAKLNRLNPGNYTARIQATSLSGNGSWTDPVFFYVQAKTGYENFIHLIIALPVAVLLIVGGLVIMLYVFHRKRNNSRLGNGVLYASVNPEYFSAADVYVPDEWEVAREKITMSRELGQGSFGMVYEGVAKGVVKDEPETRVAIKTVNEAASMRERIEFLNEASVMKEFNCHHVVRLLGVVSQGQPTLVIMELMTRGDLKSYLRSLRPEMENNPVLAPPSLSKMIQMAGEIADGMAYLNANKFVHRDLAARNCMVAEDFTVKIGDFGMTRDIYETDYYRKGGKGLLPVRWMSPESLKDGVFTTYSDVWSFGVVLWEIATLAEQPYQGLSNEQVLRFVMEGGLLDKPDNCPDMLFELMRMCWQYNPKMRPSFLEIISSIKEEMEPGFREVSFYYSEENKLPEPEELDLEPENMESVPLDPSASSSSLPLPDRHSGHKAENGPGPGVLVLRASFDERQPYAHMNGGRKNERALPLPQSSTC

HIPK2 = conditions: ref Gao et al. [42], cited from earlier work
LIMK1 = conditions: ref Gao et al. [42], cited from earlier work
MAPK9 = conditions: ref Gao et al. [42], cited from earlier work
AXL = molecular target: T1, AXL (Homo sapiens, UniProt P30530); conditions: ref Gao et al. [42], cited from earlier work
T1 sequence (P30530 26-894): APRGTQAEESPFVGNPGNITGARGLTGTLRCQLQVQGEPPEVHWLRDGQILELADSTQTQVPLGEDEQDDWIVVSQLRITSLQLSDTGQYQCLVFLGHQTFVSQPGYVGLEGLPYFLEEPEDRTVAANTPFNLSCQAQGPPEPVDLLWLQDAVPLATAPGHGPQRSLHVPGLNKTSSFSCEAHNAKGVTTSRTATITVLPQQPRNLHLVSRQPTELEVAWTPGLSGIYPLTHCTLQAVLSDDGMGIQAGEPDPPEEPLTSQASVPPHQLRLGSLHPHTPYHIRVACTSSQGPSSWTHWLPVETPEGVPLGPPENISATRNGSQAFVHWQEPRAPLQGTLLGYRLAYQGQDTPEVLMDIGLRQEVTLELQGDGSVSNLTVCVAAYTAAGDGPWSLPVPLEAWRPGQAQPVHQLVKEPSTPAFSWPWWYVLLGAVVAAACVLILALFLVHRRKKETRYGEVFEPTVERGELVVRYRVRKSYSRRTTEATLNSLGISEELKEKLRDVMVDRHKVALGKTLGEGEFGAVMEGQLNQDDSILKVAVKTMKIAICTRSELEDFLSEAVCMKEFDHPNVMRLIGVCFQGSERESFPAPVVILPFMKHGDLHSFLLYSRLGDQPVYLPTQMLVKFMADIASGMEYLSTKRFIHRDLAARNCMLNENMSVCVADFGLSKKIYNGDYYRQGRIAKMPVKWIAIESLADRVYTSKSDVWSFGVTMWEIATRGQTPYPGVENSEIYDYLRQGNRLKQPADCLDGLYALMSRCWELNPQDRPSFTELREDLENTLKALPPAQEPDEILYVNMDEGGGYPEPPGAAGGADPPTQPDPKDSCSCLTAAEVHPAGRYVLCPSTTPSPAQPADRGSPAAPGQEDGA

TSSK1B = conditions: ref Gao et al. [42], cited from earlier work
CAMK2D = conditions: ref Gao et al. [42], cited from earlier work
FAK = FAK (Homo sapiens, UniProt Q05397); conditions: ref Gao et al. [42]; cited from earlier work
Sequence of FAK (Q05397 whole entry): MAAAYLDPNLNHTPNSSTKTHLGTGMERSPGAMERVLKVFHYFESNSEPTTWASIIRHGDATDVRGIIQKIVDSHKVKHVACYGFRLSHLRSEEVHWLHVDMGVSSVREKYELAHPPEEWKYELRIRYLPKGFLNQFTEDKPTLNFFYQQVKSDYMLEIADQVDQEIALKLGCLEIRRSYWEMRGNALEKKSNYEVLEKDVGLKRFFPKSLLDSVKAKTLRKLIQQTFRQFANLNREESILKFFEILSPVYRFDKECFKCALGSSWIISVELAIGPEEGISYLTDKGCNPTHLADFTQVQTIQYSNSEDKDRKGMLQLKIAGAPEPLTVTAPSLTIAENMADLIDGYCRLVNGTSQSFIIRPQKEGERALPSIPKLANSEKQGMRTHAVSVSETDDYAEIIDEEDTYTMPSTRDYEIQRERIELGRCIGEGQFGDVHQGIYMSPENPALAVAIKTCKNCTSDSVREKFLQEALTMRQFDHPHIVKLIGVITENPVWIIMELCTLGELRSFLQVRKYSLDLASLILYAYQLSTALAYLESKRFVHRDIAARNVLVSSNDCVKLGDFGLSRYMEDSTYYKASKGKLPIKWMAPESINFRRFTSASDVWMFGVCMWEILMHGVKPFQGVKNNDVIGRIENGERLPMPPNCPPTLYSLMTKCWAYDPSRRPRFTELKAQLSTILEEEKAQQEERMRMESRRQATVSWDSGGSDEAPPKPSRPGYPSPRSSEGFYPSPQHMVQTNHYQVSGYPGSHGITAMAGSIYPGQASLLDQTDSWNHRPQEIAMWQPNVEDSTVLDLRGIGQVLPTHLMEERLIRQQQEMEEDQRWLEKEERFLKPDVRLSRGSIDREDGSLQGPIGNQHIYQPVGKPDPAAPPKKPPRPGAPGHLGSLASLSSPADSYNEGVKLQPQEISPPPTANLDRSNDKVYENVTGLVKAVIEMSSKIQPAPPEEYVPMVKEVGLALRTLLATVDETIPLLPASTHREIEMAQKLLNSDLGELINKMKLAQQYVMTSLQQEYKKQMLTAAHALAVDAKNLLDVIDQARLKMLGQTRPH

IRAK1 = conditions: ref Gao et al. [42], cited from earlier work
MARK2 = conditions: ref Gao et al. [42], cited from earlier work
ITK = ITK (Homo sapiens, UniProt Q08881); conditions: ref Gao et al. [42]; cited from earlier work
Sequence of ITK (Q08881 whole entry): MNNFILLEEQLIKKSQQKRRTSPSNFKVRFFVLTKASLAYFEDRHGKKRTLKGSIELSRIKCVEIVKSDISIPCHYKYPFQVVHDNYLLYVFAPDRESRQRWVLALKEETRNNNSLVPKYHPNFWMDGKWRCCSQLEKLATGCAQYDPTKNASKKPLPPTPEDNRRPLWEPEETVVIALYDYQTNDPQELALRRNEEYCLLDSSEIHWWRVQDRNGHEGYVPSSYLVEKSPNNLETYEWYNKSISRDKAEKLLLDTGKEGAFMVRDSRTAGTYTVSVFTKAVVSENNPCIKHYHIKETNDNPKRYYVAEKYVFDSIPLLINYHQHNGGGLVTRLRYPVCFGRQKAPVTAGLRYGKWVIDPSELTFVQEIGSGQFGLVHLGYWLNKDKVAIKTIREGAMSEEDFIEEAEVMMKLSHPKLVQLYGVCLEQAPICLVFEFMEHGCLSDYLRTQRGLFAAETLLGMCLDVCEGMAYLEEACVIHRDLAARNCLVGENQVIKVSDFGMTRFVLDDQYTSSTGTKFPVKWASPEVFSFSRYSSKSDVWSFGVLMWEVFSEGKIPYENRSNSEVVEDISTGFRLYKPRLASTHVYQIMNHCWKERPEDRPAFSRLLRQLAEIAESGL

TRKB = conditions: ref Gao et al. [42], cited from earlier work
CDK1 = conditions: ref Gao et al. [42], cited from earlier work
ROCK2 = conditions: ref Gao et al. [42], cited from earlier work
FGFR3 = conditions: ref Gao et al. [42], cited from earlier work
KIT = conditions: ref Gao et al. [42], cited from earlier work
GSK3b = conditions: ref Gao et al. [42], cited from earlier work
ERK6 = conditions: ref Gao et al. [42], cited from earlier work
CDK5/p25 = conditions: ref Gao et al. [42], cited from earlier work
CSNK1G2 = conditions: ref Gao et al. [42], cited from earlier work
CDC42BPA = conditions: ref Gao et al. [42], cited from earlier work
PDK1 = conditions: ref Gao et al. [42], cited from earlier work

For `COc1cc2nccc(Oc3ccc(NC(=O)Nc4cc(C)on4)c(Cl)c3)c2cc1OC` [TIVOZANIB, Tivozanib], the “Gao et al. % of activity remaining at 1 µM” value (MAPKAPK2; 1 µM) is given as 85%, the “Gao et al. % of activity remaining at 10 µM” value (MAPKAPK2; 10 µM) is given as 100% and the “Gao et al. % of activity remaining at 1 µM” value (CSNK1D; 1 µM) is given as 85%. The “Gao et al. % of activity remaining at 10 µM” value (CSNK1D; 10 µM) was 61%, the “Gao et al. % of activity remaining at 1 µM” value (AKT3; 1 µM) was 95% and the “Gao et al. % of activity remaining at 10 µM” value (AKT3; 10 µM) was 89%. For the same molecule, the “Gao et al. % of activity remaining at 1 µM” value (IGF1R) was 135%, the “Gao et al. % of activity remaining at 1 µM” value (HIPK2; 1 µM) was 94% and the “Gao et al. % of activity remaining at 10 µM” value (HIPK2; 10 µM) was 81%. The “Gao et al. % of activity remaining at 1 µM” value (LIMK1; 1 µM) was 67%, the “Gao et al. % of activity remaining at 10 µM” value (LIMK1; 10 µM) was 14% and the “Gao et al. % of activity remaining at 1 µM” value (MAPK9; 1 µM) was 104%. The “Gao et al. % of activity remaining at 10 µM” value (MAPK9; 10 µM) was 88%, the “Gao et al. % of activity remaining at 1 µM” value (AXL; 1 µM) was 12% and the “Gao et al. % of activity remaining at 10 µM” value (AXL; 10 µM) was 10%. The “Gao et al. % of activity remaining at 1 µM” value (TSSK1B; 1 µM) was 94%, the “Gao et al. % of activity remaining at 10 µM” value (TSSK1B; 10 µM) was 82% and the “Gao et al. % of activity remaining at 1 µM” value (CAMK2D; 1 µM) was 102%. The “Gao et al. % of activity remaining at 10 µM” value (CAMK2D; 10 µM) was 90%, the “Gao et al. % of activity remaining at 10 µM” value (FAK) was 35% and the “Gao et al. % of activity remaining at 1 µM” value (IRAK1; 1 µM) was 82%. The “Gao et al. % of activity remaining at 10 µM” value (IRAK1; 10 µM) was 92%, the “Gao et al. % of activity remaining at 1 µM” value (MARK2; 1 µM) was 98% and the “Gao et al. % of activity remaining at 10 µM” value (MARK2; 10 µM) was 106%. The “Gao et al. % of activity remaining at 10 µM” value (ITK) was 51%, the “Gao et al. % of activity remaining at 1 µM” value (TRKB; 1 µM) was 42% and the “Gao et al. % of activity remaining at 10 µM” value (TRKB; 10 µM) was -10%. For the same molecule, the “Gao et al. % of activity remaining at 1 µM” value (CDK1; 1 µM) was 100%, the “Gao et al. % of activity remaining at 10 µM” value (CDK1; 10 µM) was 94% and the “Gao et al. % of activity remaining at 1 µM” value (ROCK2; 1 µM) was 76%. The “Gao et al. % of activity remaining at 10 µM” value (ROCK2; 10 µM) was 51%, the “Gao et al. % of activity remaining at 1 µM” value (FGFR3; 1 µM) was 59% and the “Gao et al. % of activity remaining at 10 µM” value (FGFR3; 10 µM) was 28%. For the same molecule, the “Gao et al. % of activity remaining at 1 µM” value (KIT; 1 µM) was 3%, the “Gao et al. % of activity remaining at 10 µM” value (KIT; 10 µM) was 0% and the “Gao et al. % of activity remaining at 1 µM” value (GSK3b; 1 µM) was 104%. The “Gao et al. % of activity remaining at 10 µM” value (GSK3b; 10 µM) was 94%, the “Gao et al. % of activity remaining at 1 µM” value (ERK6; 1 µM) was 100% and the “Gao et al. % of activity remaining at 10 µM” value (ERK6; 10 µM) was 94%. The “Gao et al. % of activity remaining at 1 µM” value (CDK5/p25; 1 µM) was 90%, the “Gao et al. % of activity remaining at 10 µM” value (CDK5/p25; 10 µM) was 95% and the “Gao et al. % of activity remaining at 1 µM” value (CSNK1G2; 1 µM) was 80%. For the same molecule, the “Gao et al. % of activity remaining at 10 µM” value (CSNK1G2; 10 µM) was 73%, the “Gao et al. % of activity remaining at 1 µM” value (CDC42BPA; 1 µM) was 116% and the “Gao et al. % of activity remaining at 10 µM” value (CDC42BPA; 10 µM) was 102%. For the same molecule, the “Gao et al. % of activity remaining at 1 µM” value (PDK1; 1 µM) was 110% and the “Gao et al. % of activity remaining at 10 µM” value (PDK1; 10 µM) was 116%.
